Results published in US11918565B1, “Treatment of post-operative pain via sciatic nerve block with sustained-release liposomal anesthetic compositions” (Pacira Pharmaceuticals, Inc., priority 2022, dated 2024).
Where a name gives a salt, the structure may show the parent alone.

What was measured:
[1] = system: sciatic nerve (motor block) in subjects undergoing bunionectomy; experiment: Pharmacodynamics: onset and duration of motor block (foot movement), clinical trial #1 Part A; format: in vivo, human
Description: (§1) Clinical Study #1 was a Phase 3, multicenter, randomized, double-blind, active-controlled study in 180 subjects undergoing bunionectomy. Subjects received a sciatic (in the popliteal fossa) nerve block with a single dose of either EXPAREL 266 mg (EXP266), EXPAREL 133 mg (EXP133), or 0.25% bupivacaine HCl (50 mg; BUP50). The study was conducted in two parts (Part A and Part B). Part A was to be completed and analyzed before enrollment in Part B was initiated. Part A was a 3-arm cohort with 66 subjects undergoing bunionectomy to obtain information on pharmacokinetics (PK), pharmacodynamics (PD), efficacy, and safety. Subjects were randomized (1:1:1) to the EXP266, EXP133, and BUP50 treatment arms. Part B was a 2-arm cohort with 119 subjects undergoing bunionectomy to evaluate the efficacy and safety of EXPAREL compared with bupivacaine HCl. The dose of the EXPAREL arm in Part B was determined based on the interim analysis of the Part A cohort results.
(§2) On the day of surgery, subjects received an ultrasound-guided sciatic (in the popliteal fossa) nerve block with one of the following treatments: • EXP266 arm: subjects randomized to this treatment arm received 20 mL (266 mg) EXPAREL mixed with 10 mL saline (Part A only; per interim analysis was not selected for Part B) • EXP133 arm: subjects randomized to this treatment arm received 10 mL (133 mg) EXPAREL mixed with 20 mL saline (Part A and B) • BUP50 arm: subjects randomized to this treatment arm received 20 mL (50 mg) 0.25% bupivacaine HCl mixed with 10 mL saline (Part A and B)
(§3) Efficacy assessments included pain intensity scores focused on the operative foot using the Numeric Rating Scale (NRS), total postsurgical opioid consumption in OMED, time to first opioid consumption post-surgery, and percentage of opioid-free patients through 96 hours, and worst and average NRS pain intensity scores at 24 h, 48 h, 72 h, and 96 h from end of surgery. Additionally, blood samples for pharmacokinetic (PK) analysis (area under the curve [AUC], maximum plasma concentration [Cmax], time of maximum plasma concentration [Tmax], including early and late Cmax and Tmax (EXP133-ADMIX arm only), apparent terminal elimination half-life [t1/2el], apparent clearance [CL/F], and apparent volume of distribution [Vd/F]). Pharmacodynamic (PD) assessment data, including median time to onset of sensory block and motor block, and median duration of sensory and motor block were collected.
(§4) Pharmacodynamic endpoints included: onset of sensory block, offset of sensory block, duration of sensory block, onset of motor block, offset of motor block, and duration of motor block.

[2] = system: sciatic nerve (sensory block) in subjects undergoing bunionectomy; experiment: Pharmacodynamics: onset and duration of sensory block, clinical trial #1 Part A; format: in vivo, human
Description: as §1, §2, §3, §4

**Q.** Which “subjects without foot movement at the first time point with ≥50%” value ([1]; 1 h post-dose for EXP266, 2 h post-dose for EXP133 and BUP50) does the source give for CCCCN1CCCCC1C(=O)Nc1c(C)cccc1C (stereo not shown) [BUP50, bupivacaine HCl] here?
**A.** The value was 54.5%.

**Q.** What about the “subjects who still did not have complete foot movement” value ([1]; 84 h post-dose) of the same molecule?
**A.** The value was 18.2%.

**Q.** What about the “subjects with motor block onset observed” value ([1]; human, in vivo) of the same molecule?
**A.** The value was 40.9%.

**Q.** What about the “first time point at which foot movement was not present in ≥50% of subjects” value ([1]; post-dose) of the same molecule?
**A.** Its value is 2 h.

**Q.** And the “subjects without sensation at the first time point with ≥50%” value ([2]; 30 min post-dose for BUP50, 2 h for EXP266 and EXP133)?
**A.** Its value is 59.1%.

**Q.** What about the “subjects who still did not have complete sensation” value ([2]; 60 h post-dose) of the same molecule?
**A.** Its value is “all BUP50 subjects had regained sensation”.

**Q.** And the “median duration of sensory block” value ([2]; human, in vivo)?
**A.** Its value is 29.10 h.

**Q.** And the “median time to sensory block” value ([2]; human, in vivo)?
**A.** Its value is 0.46 h.

**Q.** And the “subjects with sensory block onset observed” value ([2]; human, in vivo)?
**A.** The value was 63.6%.

**Q.** What about the “first time point at which sensation was not present in ≥50% of subjects” value ([2]; post-dose) of the same molecule?
**A.** Its value is 30 min.
